Data set [1] is classed as physicochemical. How it is done: Table 4 summarizes the radiochemical yield (RCY), purity, and stability test results for all ^177Lu-labeled probes in this study. […] Such radiolabeling yield necessitated purification to achieve the requisite radiochemical purity of over 95%. Purification was conducted using a NAP-5 column, eluted with 1% BSA in PBS, resulting in radiochemical purities of 99 ± 1.7% for [^177Lu]Lu-Z-HP9 and 98.5 ± 2.2% for [^177Lu]Lu-Z-HP12, respectively. […] Thus, it was essential that the label was stable, and the compound was pure. […] The RCY for the secondary probes exceeded 97%, and consequently, further purification was deemed unnecessary for in vitro and in vivo studies. Importantly, all probes labeled with ^177Lu remained stable in the presence of an excess amount of EDTA and in PBS as control after incubation at 37 °C for 1 h.
Radiolabeling of primary and secondary probes with ^177Lu was performed using a previously described method.[29] Briefly, 100 μL of 0.2 M of NH4Ac, pH 5.5 was added to 30 μg of the probe (100 μL of 0.3 mg/mL stock in NH4Ac) to provide right pH for the labeling. The mixture was heated at 95 °C for 10 min, followed by sonication for 5 min, and reheating at 95 °C for 10 min to ensure complete dissolving. […] RCY was then analyzed using iTLC developed with 0.2 M citric acid, pH 2.0. […] Samples were run in triplicates and analyzed by radio-iTLC.

The test system of the next data set is Z-HP15. The data set can be described thus: Multicycle kinetic SPR, immobilized Z-HP15. Format: binding. The settings on record: MCK SPR. The method, then: M^–1 s^–1, as well as the slowest dissociation rate constant (kd) at 3.4 × 10^–5 s^–1.
We utilized SPR on a Biacore T200 instrument (Cytiva) to examine how secondary PNA probes (6-mer HP19, 7-mer HP21, 8-mer HP20, and 9-mer HP16) bind to primary agents. These experiments were conducted using dextran-coated CM5 sensor chips and PBS-T buffer at pH 7.4. The ligands were immobilized through a standard EDC/NHS coupling method, and the chip surface was sealed with ethanolamine. A reference surface with no primary agent was also included.
Association and dissociation times were set at 700 and 1800 s, respectively, with regeneration accomplished through a 30 s injection of 10 mM glycine-HCl, pH 1.5.
All SPR experiments were performed in duplicate, and data analysis was conducted using the Biacore T200 Evaluation software version 2.0 with a 1:1 binding model.

The source of these data is publication PMC11091976, “Shorter Peptide Nucleic Acid Probes Improve Affibody-Mediated Peptide Nucleic Acid-Based Pretargeting” (ACS Pharmacology & Translational Science, 2024).

Turning to `NC(=O)[C@H](Cc1ccc(O)cc1)NC(=O)[C@H](CCC(=O)O)NC(=O)[C@H](CCC(=O)O)NC(=O)CN(CCNC(=O)CN(CCNC(=O)CN(CCNC(=O)CN(CCNC(=O)CN(CCNC(=O)CN(CCNC(=O)CN(CCNC(=O)CN(CCNC(=O)[C@H](CO)NC(=O)[C@H](CO)NC(=O)COCCOCCNC(=O)CN1CCN(CC(=O)O)CCN(CC(=O)O)CCN(CC(=O)O)CC1)C(=O)Cn1cnc2c(N)ncnc21)C(=O)Cn1ccc(N)nc1=O)C(=O)Cn1cnc2c(N)ncnc21)C(=O)Cn1ccc(N)nc1=O)C(=O)Cn1ccc(N)nc1=O)C(=O)Cn1cnc2c(N)ncnc21)C(=O)Cn1cnc2c(=O)[nH]c(N)nc21)C(=O)Cn1cnc2c(=O)[nH]c(N)nc21` [[^177Lu]Lu-HP20, metal not drawn], in data set [1], the “stability (×500 EDTA), 37 °C, 1 h” value is 99.5 ± 0.7 and the “stability in PBS, 37 °C, 1 h” value was determined as 100 ± 0.
As a reminder, the Kd is the concentration at which binding is half-saturated. High values mean lower affinity, low ones higher affinity. Regarding “DOTA-AEEA-SS-aacaccagg-EEY-NH2 [HP16, 9-mer secondary PNA probe with DOTA]”, the ka in the data set with Z-HP15 (primary probe HP15 (Z-HP15 immobilized), 25 °C, 1.4-70 nM, 1:1 model, duplicates) is recorded as 1.0 × 10^5 M^–1 s^–1; in the data set on Z-HP15 (primary probe HP15, 37 °C), 1.8 × 10^5 M^–1 s^–1. The Kd worked out at 0.32 nM at Z-HP15 (primary probe HP15, 25 °C) and 0.44 nM on Z-HP15 (primary probe HP15, 37 °C). The kd is 3.4 × 10^–5 s^–1 at Z-HP15 (primary probe HP15, 25 °C) and 8.1 × 10^–5 s^–1 at Z-HP15 (primary probe HP15, 37 °C).
